From ChEMBL document CHEMBL6096732 (J Med Chem, 2025)
Activity calls are given as the source filed them. The calls are words filed in the database; no cut-off is given here.

Columns and labels:
[1] = biological target: Histone deacetylase 5 (Homo sapiens, UniProt Q9UQL6); assay: Inhibition of recombinant HDAC5 (unknown origin) using Boc-Lys(trifluoroacetyl)-AMC as substrate preincubated for 1 hr followed by substrate addition and measured after 2 hrs by fluorescence based micro plate reader analysis
[2] = biological target: Histone deacetylase 9 (Homo sapiens, UniProt Q9UKV0); assay: Inhibition of recombinant HDAC9 (unknown origin) using Boc-Lys(trifluoroacetyl)-AMC as substrate preincubated for 1 hr followed by substrate addition and measured after 2 hrs by fluorescence based micro plate reader analysis
[3] = biological target: Polyamine deacetylase HDAC10 (Homo sapiens, UniProt Q969S8); assay: Inhibition of recombinant HDAC10 (unknown origin) preincubated for 1 hr followed by substrate addition and measured after 2 hrs by fluorescence based micro plate reader analysis
[4] = tested on: 4T1; assay: cells; assay type: functional, cell-based; conditions: Mus musculus, 4T1, 72 h
[5] = tested on: SK-OV-3; assay: cells; assay type: functional, cell-based; conditions: Homo sapiens, SK-OV-3, 72 h
Description: Antiproliferative activity against human SK-OV-3 cells assessed as inhibition of cell growth incubated for 72 hrs by MTT assay

[6] = tested on: B16-F10; assay: Anti-invasive activity in mouse B16-F10 cells assessed as reduction in invasive capacity at 5 to 20 uM incubated for 24 to 48 hrs by crystal violet staining based microscopic analysis; assay type: functional, cell-based; conditions: dose 5-20 µM, time 24-48 hrs
[7] = tested on: B16-F10; assay: Inhibition of cell migration in mouse B16-F10 cells assessed as wound area at 10 uM incubated for 24 hrs by wound healing assay (reference value: 50.36 +/- 1.68 %); assay type: functional; set-up: scale not given: the % may be the effect or the level left
[8] = tested on: B16-F10; assay: Induction of DNA damage in mouse B16-F10 cells assessed as increase in gamma-H2AX expression at 2 uM incubated for 24 hrs in presence of olaparib by Western blot analysis; assay type: functional, cell-based
[9] = MRT (0 to infinity) in male Sprague-Dawley rat at 2 mg/kg, iv measured after 12 hrs by LC-MS/MS analysis; assay type: ADME, organism-based; conditions: in vivo
[10] = MRT (0 to infinity) in male Sprague-Dawley rat at 20 mg/kg, po measured after 12 hrs by LC-MS/MS analysis; assay type: ADME, organism-based; conditions: in vivo
[11] = Clast in male Sprague-Dawley rat at 20 mg/kg, po measured after 12 hrs by LC-MS/MS analysis; assay type: ADME, organism-based; conditions: in vivo, read-out: Clast
[12] = Oral bioavailability in male Sprague-Dawley rat at 20 mg/kg measured after 12 hrs by LC-MS/MS analysis; assay type: ADME, organism-based; conditions: in vivo
[13] = Toxicity in male C57BL/6 mouse implanted with mouse B16-F10 cells assessed as histopathological changes in liver at 50 mg/kg, po co-administered with NP-19 as once daily dosage via gavage for 14 days by HandE staining based microscopic analysis; assay type: organism-based; conditions: in vivo, 336 h, time 14 day
[14] = tested on: Mus musculus; assay: Immunomodulatory activity in male C57BL/6 mouse model implanted with mouse B16-F10 cells assessed as increase in CD3+ CD4+ T cells in tumor at 50 mg/kg, po administered once daily for 14 days by flow cytometric analysis (reference value: 3.1 %); assay type: functional; conditions: time 14 day
[15] = tested on: 4T1; assay: Antitumor activity against mouse 4T1 cells implanted in female BALB/c mouse model assessed as tumor growth inhibition co-administrated orally with olaparib as once daily dose via gavage for 14 days relative to control; assay type: functional; conditions: route po; time 14 day
[16] = tested on: 4T1; assay: Antitumor activity against mouse 4T1 cells implanted in female BALB/c mouse model assessed as induction of DNA damage by measuring increase in gamma-H2AX expression in tumor co-administrated orally with olaparib as once daily dose via gavage for 14 days by immunohistochemistry analysis; assay type: functional, cell-based; conditions: route po, time 14.0 day
[17] = biological target: Histone deacetylase 1 (Homo sapiens, UniProt Q13547); conditions: dose 500.0 nM, time 3.0 hrs
Chain of Histone deacetylase 1 (Q13547 whole entry): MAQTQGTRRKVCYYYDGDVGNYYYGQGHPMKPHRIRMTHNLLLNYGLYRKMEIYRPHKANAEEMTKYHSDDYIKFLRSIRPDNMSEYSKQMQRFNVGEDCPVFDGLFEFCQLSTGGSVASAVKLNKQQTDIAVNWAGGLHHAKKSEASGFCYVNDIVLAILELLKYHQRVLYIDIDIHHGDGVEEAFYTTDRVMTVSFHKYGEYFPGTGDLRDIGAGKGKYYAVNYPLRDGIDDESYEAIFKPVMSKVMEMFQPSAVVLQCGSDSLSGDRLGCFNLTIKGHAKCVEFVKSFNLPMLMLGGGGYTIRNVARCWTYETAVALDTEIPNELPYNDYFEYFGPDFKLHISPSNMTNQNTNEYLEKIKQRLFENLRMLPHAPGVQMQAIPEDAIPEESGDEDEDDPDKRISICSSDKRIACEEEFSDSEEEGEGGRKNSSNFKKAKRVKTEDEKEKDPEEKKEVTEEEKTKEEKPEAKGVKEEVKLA

Chain of Histone deacetylase 9 (Q9UKV0 whole entry): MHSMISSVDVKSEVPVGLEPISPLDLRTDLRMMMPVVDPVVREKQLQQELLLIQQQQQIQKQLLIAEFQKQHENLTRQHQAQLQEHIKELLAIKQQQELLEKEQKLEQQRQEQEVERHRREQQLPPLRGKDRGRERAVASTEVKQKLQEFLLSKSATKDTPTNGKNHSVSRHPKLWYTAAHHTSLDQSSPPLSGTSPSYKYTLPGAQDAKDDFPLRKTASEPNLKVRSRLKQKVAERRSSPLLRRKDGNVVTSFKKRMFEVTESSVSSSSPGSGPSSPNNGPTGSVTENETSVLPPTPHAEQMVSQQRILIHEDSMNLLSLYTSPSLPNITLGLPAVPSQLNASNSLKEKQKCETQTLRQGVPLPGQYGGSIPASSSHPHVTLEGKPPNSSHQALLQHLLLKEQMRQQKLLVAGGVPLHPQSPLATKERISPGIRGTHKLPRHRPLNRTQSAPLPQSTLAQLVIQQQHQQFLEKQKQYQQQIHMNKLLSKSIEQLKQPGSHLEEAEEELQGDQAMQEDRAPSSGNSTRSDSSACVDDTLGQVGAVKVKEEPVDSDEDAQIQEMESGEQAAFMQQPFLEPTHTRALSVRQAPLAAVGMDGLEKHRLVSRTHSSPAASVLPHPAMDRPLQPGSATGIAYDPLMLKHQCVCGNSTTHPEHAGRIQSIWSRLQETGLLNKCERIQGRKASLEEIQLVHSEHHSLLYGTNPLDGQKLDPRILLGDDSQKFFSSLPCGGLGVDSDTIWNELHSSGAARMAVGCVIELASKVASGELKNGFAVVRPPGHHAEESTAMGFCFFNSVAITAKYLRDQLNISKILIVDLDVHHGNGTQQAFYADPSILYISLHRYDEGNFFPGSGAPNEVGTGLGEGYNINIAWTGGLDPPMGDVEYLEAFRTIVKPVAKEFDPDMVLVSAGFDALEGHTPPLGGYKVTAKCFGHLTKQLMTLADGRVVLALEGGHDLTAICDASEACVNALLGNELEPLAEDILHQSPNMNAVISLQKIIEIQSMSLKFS
Chain of Histone deacetylase 5 (Q9UQL6 whole entry): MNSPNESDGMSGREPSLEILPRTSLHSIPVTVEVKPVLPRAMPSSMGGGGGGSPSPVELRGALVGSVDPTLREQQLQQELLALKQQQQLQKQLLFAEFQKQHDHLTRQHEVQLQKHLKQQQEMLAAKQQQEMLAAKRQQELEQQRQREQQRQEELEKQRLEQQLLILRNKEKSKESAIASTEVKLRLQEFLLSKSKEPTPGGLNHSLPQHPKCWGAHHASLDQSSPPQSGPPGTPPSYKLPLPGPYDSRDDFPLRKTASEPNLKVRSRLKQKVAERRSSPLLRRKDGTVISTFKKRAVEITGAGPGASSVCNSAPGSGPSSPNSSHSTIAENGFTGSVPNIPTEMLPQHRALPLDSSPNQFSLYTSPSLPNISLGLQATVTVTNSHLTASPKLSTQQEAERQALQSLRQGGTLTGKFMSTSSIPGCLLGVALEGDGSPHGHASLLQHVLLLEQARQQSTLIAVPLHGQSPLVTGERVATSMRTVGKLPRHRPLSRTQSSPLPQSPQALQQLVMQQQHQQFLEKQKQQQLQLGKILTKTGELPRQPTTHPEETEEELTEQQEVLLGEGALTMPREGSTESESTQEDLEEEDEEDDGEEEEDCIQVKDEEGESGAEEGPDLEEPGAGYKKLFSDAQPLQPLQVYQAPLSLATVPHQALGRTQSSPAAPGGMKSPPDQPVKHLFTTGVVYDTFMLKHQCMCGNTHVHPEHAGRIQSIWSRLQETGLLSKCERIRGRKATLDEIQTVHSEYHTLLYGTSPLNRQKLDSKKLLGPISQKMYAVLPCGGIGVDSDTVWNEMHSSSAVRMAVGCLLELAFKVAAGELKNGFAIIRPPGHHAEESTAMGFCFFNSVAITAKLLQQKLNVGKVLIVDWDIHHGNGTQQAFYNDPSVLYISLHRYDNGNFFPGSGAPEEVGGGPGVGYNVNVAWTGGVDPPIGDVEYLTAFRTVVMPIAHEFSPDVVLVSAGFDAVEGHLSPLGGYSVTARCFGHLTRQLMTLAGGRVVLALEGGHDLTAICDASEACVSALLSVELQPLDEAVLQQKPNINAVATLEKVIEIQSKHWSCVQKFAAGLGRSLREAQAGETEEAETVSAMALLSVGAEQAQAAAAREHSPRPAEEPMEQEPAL
Chain of Polyamine deacetylase HDAC10 (Q969S8 whole entry): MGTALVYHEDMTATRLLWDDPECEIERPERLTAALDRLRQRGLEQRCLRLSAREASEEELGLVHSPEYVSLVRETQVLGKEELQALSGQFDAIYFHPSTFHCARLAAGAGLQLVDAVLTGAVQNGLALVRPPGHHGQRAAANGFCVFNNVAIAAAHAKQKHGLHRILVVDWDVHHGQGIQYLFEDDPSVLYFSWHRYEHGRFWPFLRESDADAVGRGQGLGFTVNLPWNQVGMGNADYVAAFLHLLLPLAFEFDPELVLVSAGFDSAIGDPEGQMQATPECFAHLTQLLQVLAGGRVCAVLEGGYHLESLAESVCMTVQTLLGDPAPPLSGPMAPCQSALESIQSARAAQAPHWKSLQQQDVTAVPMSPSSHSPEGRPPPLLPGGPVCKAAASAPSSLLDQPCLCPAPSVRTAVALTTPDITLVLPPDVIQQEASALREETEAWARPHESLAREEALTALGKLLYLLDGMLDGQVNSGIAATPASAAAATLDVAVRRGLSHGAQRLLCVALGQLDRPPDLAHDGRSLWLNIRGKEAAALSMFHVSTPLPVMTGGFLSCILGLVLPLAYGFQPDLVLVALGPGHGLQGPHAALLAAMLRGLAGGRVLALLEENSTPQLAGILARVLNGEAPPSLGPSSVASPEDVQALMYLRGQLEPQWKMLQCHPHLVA

- IC50 [1]: > 10 µM
- IC50 [2]: > 10 µM
- IC50 [3]: > 10 µM
- IC50 [4]: 8.26 µM
- IC50 [5]: 12.8 µM
- MRT inf [9]: 0.741 h
- MRT inf [10]: 4.9 h
- concentration at 12 h [11]: 106 ng/mL
- bioavailability [12]: 95.3%
- inhibition [17]: 14%
Compound: CCCNNC(=O)c1ccc(Cn2c3ccccc3c3c(-c4ccccn4)nc4ccccc4c32)cc1
- Activity [6]: Active
- Activity [7]: 10.25%
- Activity [8]: Active
- Activity [13]: Non-toxic
- Activity [14]: 22%
- TGI [15]: 91%
- Activity [16]: Active
